Measurements: ChEMBL document CHEMBL1275561, “In vitro activities of doripenem, a new broad-spectrum carbapenem, against recently collected clinical anaerobic isolates, with emphasis on the Bacteroides fragilis group” (2008)

The compounds below were run on Clostridium perfringens (assay: Antimicrobial activity against Clostridium perfringens assessed as resistant isolates by agar dilution method).
Assay type: functional

C[C@@H](O)[C@H]1C(=O)N2C(C(=O)O)=C(S[C@@H]3CN[C@H](C(=O)Nc4cccc(C(=O)O)c4)C3)[C@H](C)[C@H]12 and C[C@@H](O)[C@H]1C(=O)N2C(C(=O)O)=C(S[C@@H]3CN[C@H](C(=O)N(C)C)C3)[C@H](C)[C@H]12 [MEROPENEM] are the same in Activity: 0% for the first, 0% for the second.

CC1(C)S[C@@H]2[C@H](NC(=O)[C@H](N)c3ccccc3)C(=O)N2[C@H]1C(=O)O [AMPICILLIN] and CCN1CCN(C(=O)N[C@@H](C(=O)N[C@@H]2C(=O)N3[C@@H]2SC(C)(C)[C@@H]3C(=O)O)c2ccccc2)C(=O)C1=O [PIPERACILLIN] are the same in Activity: 0% for the first, 0% for the second.

CO[C@@]1(NC(=O)Cc2cccs2)C(=O)N2C(C(=O)O)=C(COC(N)=O)CS[C@@H]21 [CEFOXITIN] and C[C@@H](O)[C@H]1C(=O)N2C(C(=O)O)=C(SCCNC=N)C[C@H]12 [IMIPENEM ANHYDROUS] are the same in Activity: 0% for the first, 0% for the second.

CCC[C@@H]1C[C@@H](C(=O)N[C@@H]([C@H]2O[C@H](SC)[C@H](O)[C@@H](O)[C@H]2O)[C@H](C)Cl)N(C)C1 [CLINDAMYCIN] and C[C@@H](O)[C@H]1C(=O)N2C(C(=O)O)=C(S[C@@H]3CN[C@H](CNS(N)(=O)=O)C3)[C@H](C)[C@H]12 [DORIPENEM] are the same in Activity: 0% for the first, 0% for the second.

CC(=O)NC[C@H]1CN(c2ccc(N3CCOCC3)c(F)c2)C(=O)O1 [LINEZOLID] and CN[C@H](CC(C)C)C(=O)N[C@H]1C(=O)N[C@@H](CC(N)=O)C(=O)N[C@H]2C(=O)N[C@H]3C(=O)N[C@H](C(=O)N[C@H](C(=O)O)c4cc(O)cc(O)c4-c4cc3ccc4O)[C@H](O)c3ccc(c(Cl)c3)Oc3cc2cc(c3O[C@@H]2O[C@H](CO)[C@@H](O)[C@H](O)[C@H]2O[C@H]2C[C@](C)(N)[C@H](O)[C@H](C)O2)Oc2ccc(cc2Cl)[C@H]1O [VANCOMYCIN] are the same in Activity: 0% for the first, 0% for the second.

Cc1ncc([N+](=O)[O-])n1CCO [METRONIDAZOLE] gave an Activity of 7.8%.
